Laboratory results as given in US4642341A, “Carbapenem antibiotics” (priority 1985, dated 1987).
≈ marks a conversion by molar mass, not a printed value. Where two headings read alike, the source gives them in different places.

Key:
[1] = Half-life in phosphate buffer pH 7.4; format: physicochemical; details: phosphate buffer; for half-life at 100 µM: pH 7.4, τ1/2 (half-life)
Description: To a solution of p-nitrobenzyl 3-[2-(1-pyridinium)ethylthio)]-6α[1-(R)-hydroxyethyl]-7-oxo-1-azabicyclo(3.2.0)hept-2-ene-carboxylate diphenylphosphate (0.16 g, 0.22 mmol) in wet tetrahydrofuran (10mL) was added ether (10mL), potassium phosphate monobasic-sodium hydroxide buffer pH 7.4 (16 mL, 0.05 M) and 10% palladium on charcoal (0.16 g). The resulting mixture was hydrogenated under 40 psi for 1 h at 25° C. The two phases were separated and the organic phase was extracted with water (2×3 mL). The aqeuous solutions were combined, washed with ether (2×10 ml) and poured on top of a column (1.5×6.2 cm) pf μ-bondapak C-18 after the traces of organic solvents have been removed under vacuum. Elution of the column with water gave after lyophylization of the appropriate fractions a yellowish powder 0.062 g (84%), ir (KBr) .nu.max : 3700-3000 (OH), 1755 (C--O of β-lactam), 1630 (pyridinium), 1590 cm^-1 (carboxylate), ^1 Hmr (D2 O): 1.22 (3H, d, J=6.4 Hz, CH3 CHOH), 2.92 (d, J=9.1 Hz, H-4), 2.97 (d, J=9.1 Hz, H-4), 3.20 (dd, J=2.5 Hz, J=6.1 Hz, H-6), 3.44 (t, J=6.0 Hz, CH2 S), 3.93 (dd, J=9.1 Hz, J=2.5 Hz, H-5), 4.82 (t, J=6.0 Hz, CH2 N^+), 8.04 (m, Hm of pyridinium), 8.5 (m, Hp of pyridinium), 8.82 (dd, J=3.2. Hz, J=1.1 Hz, Ho of pyridinium), uv (H2 O) λ max : 259 (ε5800), 296 (ε7030) mμ, .tau.1/2 =13.5 h (measured at a concentration of 10^-4 M in phosphate buffer pH 7.4 at 36.8° C.).

[2] = tested on: S. aureus A15097 (Meth-res.); test: Minimum Inhibitory Concentration, tube dilution; format: cell-based; details: Staphylococcus aureus, table 6
[3] = tested on: P. rettgeri A22424; test: Minimum Inhibitory Concentration, tube dilution; format: cell-based; details: Providencia rettgeri, overnight 37° C., table 6, read-out: MIC
[4] = tested on: E. cloacae A-9656; test: Minimum Inhibitory Concentration, tube dilution; format: cell-based; details: Enterobacter cloacae, A9656; overnight 37° C.; table 6
[5] = tested on: H. influenzae A-9833; test: Minimum Inhibitory Concentration, tube dilution; format: cell-based; details: Haemophilus influenzae, A9833; overnight 37° C.; table 6; read-out: MIC
[6] = tested on: M. morganii A15153; test: Minimum Inhibitory Concentration, tube dilution; format: cell-based; details: Morganella morganii, A15153, overnight 37° C.; table 6
[7] = tested on: P. vulgaris A21559; test: Minimum Inhibitory Concentration, tube dilution; format: cell-based; details: Proteus vulgaris, A21559, overnight 37° C.; table 6
[8] = tested on: K. pneumoniae A20468; test: Minimum Inhibitory Concentration, tube dilution; format: cell-based; details: Klebsiella pneumoniae, A20468, overnight 37° C.; table 6; read-out: MIC
[9] = tested on: E. cloacae A9659; test: Minimum Inhibitory Concentration, tube dilution; format: cell-based; details: Enterobacter cloacae, A9659, overnight 37° C.; table 6; read-out: MIC
[10] = tested on: P. aeruginosa A21213; test: Minimum Inhibitory Concentration, tube dilution; format: cell-based; details: Pseudomonas aeruginosa, A21213, overnight 37° C.; table 6; read-out: MIC
[11] = Pharmacokinetic parameters in the mouse after intramuscular dose; format: in vivo, mice; details: im, 20 mg/kg
Description: Also shown is the urinary recovery in the mice.
Compounds were solubilized in 0.1 M phosphate buffer pH 7.

[12] = tested on: H. influenzae A21518; test: Minimum Inhibitory Concentration, tube dilution; format: cell-based; details: Haemophilus influenzae, overnight 37° C., table 6
[13] = tested on: S. faecalis A20688; test: Minimum Inhibitory Concentration, tube dilution; format: cell-based; details: Enterococcus faecalis, A20688, overnight 37° C.; table 6; read-out: MIC
[14] = tested on: P. aeruginosa A9843A; test: animal or person; format: in vivo, mice; details: Pseudomonas aeruginosa, in Mus musculus, im, 3.5 h, read-out: PD50 /treatment
Description: (§1) Drugs were administered i.m. 0 to 2 hours post-infection (A9606) or 1 and 3.5 hours post-infection for the others.

[15] = tested on: P. mirabilis A9900; test: Protective effect, intramuscular treatment of infected mice (table 7); format: in vivo; details: Proteus mirabilis, A9900, im; i.m. 1 and 3.5 hours post-infection; ~1×10^7 organisms i.p.; read-out: PD50 /treatment
Description: as §1

[16] = tested on: P. aeruginosa A20481; test: as above; format: in vivo; details: Pseudomonas aeruginosa, A20481, im; i.m. 1 and 3.5 hours post-infection; ~1×10^5 organisms i.p.; read-out: PD50 /treatment
Description: as §1

[17] = tested on: S. aureus A9606; test: as above; format: in vivo; details: Staphylococcus aureus, A9606, im; i.m. 0 to 2 hours post-infection; ~1×10^9 organisms i.p.; read-out: PD50 /treatment
Description: as §1

[18] = tested on: P. aeruginosa A-9843A; test: Minimum Inhibitory Concentration, tube dilution; format: cell-based; details: Pseudomonas aeruginosa, A9843A, overnight 37° C.; table 6; read-out: MIC
[19] = tested on: B. fragilis A22696; test: Minimum Inhibitory Concentration, tube dilution; format: cell-based; details: Bacteroides fragilis, overnight 37° C., table 6, read-out: MIC
[20] = tested on: S. aureus A-9537; test: Minimum Inhibitory Concentration, tube dilution; format: cell-based; details: Staphylococcus aureus, table 6, read-out: MIC
[21] = tested on: E. coli A20341-1; test: Minimum Inhibitory Concentration, tube dilution; format: cell-based; details: Escherichia coli, A203411, overnight 37° C.; table 6
[22] = tested on: S. pyogenes A-9604; test: Minimum Inhibitory Concentration, tube dilution; format: cell-based; details: Streptococcus pyogenes, A9604, overnight 37° C.; table 6
[23] = tested on: P. mirabilis A-9900; test: Minimum Inhibitory Concentration, tube dilution; format: cell-based; details: Proteus mirabilis, A9900, overnight 37° C.; table 6
[24] = tested on: S. pneumoniae A-9585; test: Minimum Inhibitory Concentration, tube dilution; format: cell-based; details: Streptococcus pneumoniae, A9585, overnight 37° C.; table 6
[25] = tested on: S. aureus A-9606 (Pen-res.); test: Minimum Inhibitory Concentration, tube dilution; format: cell-based; details: Staphylococcus aureus, Pen-res; table 6
[26] = tested on: E. coli A15119; test: Minimum Inhibitory Concentration, tube dilution; format: cell-based; details: Escherichia coli, A15119, overnight 37° C.; table 6
[27] = tested on: B. fragilis A22862; test: Minimum Inhibitory Concentration, tube dilution; format: cell-based; details: Bacteroides fragilis, overnight 37° C., table 6

| Compound | half-life at 100 µM [1] | MIC [2] | MIC [3] | MIC [4] | MIC [5] | MIC [7] | MIC [12] | MIC [13] | ED50 [14] | ED50 [15] | ED50 [16] | ED50 [17] | MIC [18] | MIC [19] | MIC ([20]; A9537, 50% serum) | MIC ([20]; A9537, overnight 37° C.) | MIC [21] | MIC [22] | MIC [24] | MIC [25] | other results |
| --- | --- | --- | --- | --- | --- | --- | --- | --- | --- | --- | --- | --- | --- | --- | --- | --- | --- | --- | --- | --- | --- |
| CC(C[n+]1ccccc1)SC1=C(C(=O)[O-])N2C(=O)[C@H]([C@@H](C)O)[C@H]2C1 (single isomer, unassigned) [Ex. 15 (cmp. "B")] | 12.6 h | 0.03 µg/mL (≈ 0.0861 µM) | 0.06 µg/mL (≈ 0.172 µM) | 0.06 µg/mL (≈ 0.172 µM) | – | – | – | – | – | – | – | – | – | – | – | – | – | – | – | – | – |
| Cc1cc(C)c[n+](CCSC2=C(C(=O)[O-])N3C(=O)[C@H]([C@@H](C)O)[C@H]3C2)c1 [Example 4] | 16.9 h | > 63 µg/mL | 0.5 µg/mL (≈ 1.38 µM) | 0.25 µg/mL (≈ 0.69 µM) | > 32 µg/mL | 0.03 µg/mL (≈ 0.0828 µM) | > 32 µg/mL | 0.5 µg/mL (≈ 1.38 µM) | 5 mg/kg | ~22 mg/kg | > 5 mg/kg | 0.4 mg/kg | 32 µg/mL (≈ 88.3 µM) | 0.25 µg/mL (≈ 0.69 µM) | 0.03 µg/mL (≈ 0.0828 µM) | 0.03 µg/mL (≈ 0.0828 µM) | 0.06 µg/mL (≈ 0.166 µM) | 0.03 µg/mL (≈ 0.0828 µM) | 0.03 µg/mL (≈ 0.0828 µM) | 0.5 µg/mL (≈ 1.38 µM) | MIC [6]: 0.25 µg/mL (≈ 0.69 µM); MIC [8]: 0.25 µg/mL (≈ 0.69 µM); MIC [9]: 0.25 µg/mL (≈ 0.69 µM); MIC [10]: 2 µg/mL (≈ 5.52 µM); AUC ([11]; blood): 5500 ng·h/mL; Cmax ([11]; blood): 11400 ng/mL; half-life ([11]; blood, read-out: T1/2 (blood)): 0.173 h; dose excreted ([11]; urine, read-out: Urine Recovery): 49 ± 6%; MIC [23]: 0.25 µg/mL (≈ 0.69 µM); MIC [26]: 0.06 µg/mL (≈ 0.166 µM); MIC [27]: 0.06 µg/mL (≈ 0.166 µM) |
| C[C@@H](O)[C@H]1C(=O)N2C(C(=O)[O-])=C(SCC[n+]3cccc(CO)c3)C[C@H]12 [Example 5, (5R,6S)-3-[[2-(3-hydroxymethylpyridino)ethyl]thio]-6-[(R)-1-hydroxyethyl]-7-oxo-1-azabicyclo[3.2.0]hept-2-ene-2-carboxylate] | – | > 63 µg/mL | – | – | > 32 µg/mL | 0.06 µg/mL (≈ 0.165 µM) | > 32 µg/mL | 0.5 µg/mL (≈ 1.37 µM) | 0.9 mg/kg | 22 mg/kg | 0.8 mg/kg | 0.5 mg/kg | 2 µg/mL (≈ 5.49 µM) | 0.5 µg/mL (≈ 1.37 µM) | 0.06 µg/mL (≈ 0.165 µM) | 0.03 µg/mL (≈ 0.0823 µM) | 0.06 µg/mL (≈ 0.165 µM) | 0.03 µg/mL (≈ 0.0823 µM) | 0.03 µg/mL (≈ 0.0823 µM) | 0.03 µg/mL (≈ 0.0823 µM) | half-life ([1]; pH 7.4, t1/2 (half-life)): 14 h; MIC [26]: 0.06 µg/mL (≈ 0.165 µM); MIC [27]: 0.06 µg/mL (≈ 0.165 µM) |
